# Laboratory results reported in US20200345746A1, “Oxazine Derivative for Use in the Prevention of Alzheimer's Disease in at Risk Patents” (Novartis AG, priority 2016, published 2020).
# Values joined by “and” are separate entries in the source; they are usually repeats but may differ in a detail not shown here. Equal entries are not always repeated.
# Assays:
# Aβ38 = test: 3-month dose-ranging study: Aβ38 in CSF; format: in vivo, human
# Source text: This study is listed in ClinicalTrials.gov under the NCT02576639 Identifier code.
# The primary purpose of this study was to expand on previous safety and tolerability data obtained over 2-week and 4-week duration in the first in human study and thereby allow initiation of future long-term efficacy trials in subjects at risk of AD. In addition, data relevant for Pharmacokinetic/Pharmacodynamic modeling was obtained in order to support dose selection decisions for future efficacy studies.
# Aβ40 = Aβ40 in C57BL/6 mouse brain after chronic dosing (MSD assay); format: in vivo; conditions: for Average Aβ40 brain: mean ± SD, n = 4
# Method: Frozen mouse forebrains were weighed and homogenized in 9 volumes (w/v) of ice-cold TBS-Complete (20 mM Tris-HCl pH 7.4, 137 mM NaCl, 1× Complete [Protease Inhibitor Cocktail Tablets: 1 836 145, Roche Diagnostics GmbH, Penzberg, Germany]) by sonication (90% duty cycle, output control 5, 40-55 pulses, [Sonifier 450, Branson]). After homogenization several 50 μl aliquots were prepared for analysis and were stored at −80° C.
# Human Aβ peptide (1-40) trifluoroacetate salt (H 1194.1000, Bachem, Bubendorf, Switzerland) was used as calibration curve for Aβ1-40. It was solubilized in water-free DMSO (41647, Fluka) at a concentration of 1 mg/ml for approximately 30 min at room temperature (RT) and then visually checked for complete solubilization.
# Endogenous Aβ40 in mice was determined with the Meso Scale Discovery (MSD) 96-well MULTI-ARRAY human/rodent (4G8) Aβ40 Ultrasensitive Assay (#K110FTE-3, Meso Scale Discovery, Gaithersburg, USA). The assay was performed according to the manufacturer's instructions except for the calibration curve and the sample preparations. TritonX-100 (TX-100) soluble Aβ40 was extracted from forebrain with 1% TX-100 using a 50 μl aliquot of each 1:10 forebrain homogenate, mixed with 50 μl 2% TX-100 in TBS complete (20 mM Tris-HCl pH 7.4, 137 mM NaCl, 1× Complete [Protease Inhibitor Cocktail Tablets: 1 836 145, Roche Diagnostics GmbH, Penzberg Germany]) to reach a final concentration of 1% TX-100 and a 1:20 forebrain dilution. The samples were incubated for 15 min on ice and vortexed every 5 min. The samples were ultra-centrifuged (100000×g, 4° C., 15 min) and 50 μl of the clear supernatants were transferred to fresh tubes. For the Aβ40 assay the supernatants were further diluted 1:5 in 3% Blocker A solution (from kit) to a final forebrain dilution of 1:100 and applied to the plate.
# The calibration curve was prepared in a corresponding dilution of 1% Blocker A solution spiked with synthetic Aβ1-40 peptide (1.56-100 pg/ml) except for non-transgenic mouse brain samples: In this case, the calibration curve was prepared in a correspondingly diluted APP knockout mouse forebrain spiked with synthetic Aβ1-40 peptide (1.56-100 pg/ml). For all samples and standards 25 μl were applied per well. For each determination duplicate wells were performed. The mean values from the duplicate wells were used for calculations.
# At the last day of the study, groups of n=4 mice were sacrificed 4 hours and 24 hours after having received the last dose. Forebrain was separated, and analyzed for β-amyloid peptide 1-40. Concentrations of Aβ40 for the vehicle and treatment groups are summarized in Table 6 and visualised in FIG. 2. The percent of reduction versus the corresponding vehicle treated group was calculated.
smiles,measurement,setting,value
"C[C@@]1(c2nc(NC(=O)c3ncc(C(F)(F)F)cc3Cl)ccc2F)CO[C@@](C)(C(F)(F)F)C(N)=N1 [Compound 1, N-(6-((3R,6R)-5-amino-3,6-dimethyl-6-(trifluoromethyl)-3,6-dihydro-2H-1,4-oxazin-3-yl)-5-fluoropyridin-2-yl)-3-chloro-5-(trifluoromethyl)picolinamide]","Aβ38 in CSF percent change from baseline, Difference (90% CI) Cmpd 1-Placebo","Aβ38; month 3, 2 mg QD","−18.17 (−21.49, −14.85) %"
same,"Aβ38 in CSF percent change from baseline, LSmean (SE)","Aβ38; month 3, 2 mg QD",−20.58 (1.397) %
same,"Aβ38 in CSF percent change from baseline, Difference (90% CI) Cmpd 1-Placebo","Aβ38; month 3, 10 mg QD","−60.18 (−63.54, −56.83) %"
same,"Aβ38 in CSF percent change from baseline, LSmean (SE)","Aβ38; month 3, 10 mg QD",−62.60 (1.430) %
same,"Aβ38 in CSF percent change from baseline, Difference (90% CI) Cmpd 1-Placebo","Aβ38; month 3, 35 mg QD","−80.55 (−83.83, −77.27) %"
same,"Aβ38 in CSF percent change from baseline, LSmean (SE)","Aβ38; month 3, 35 mg QD",−82.96 (1.366) %
same,"Aβ38 in CSF percent change from baseline, Difference (90% CI) Cmpd 1-Placebo","Aβ38; month 3, 85 mg QD","−86.81 (−90.22, −83.41) %"
same,"Aβ38 in CSF percent change from baseline, LSmean (SE)","Aβ38; month 3, 85 mg QD",−89.23 (1.470) %
same,Average Aβ40 brain,"Aβ40; C57BL/6, 8 μmol/kg q.d. 8 weeks, 4 h after last dose",432.8 ± 140.5 pg/g
same,Average Aβ40 brain,"Aβ40; C57BL/6, 8 μmol/kg q.d. 8 weeks, 24 h after last dose",1098.6 ± 148.7 pg/g
same,% reduction vs vehicle (brain Aβ40),"Aβ40; C57BL/6, 8 μmol/kg, 4 h after last dose",67.1%
same,% reduction vs vehicle (brain Aβ40),"Aβ40; C57BL/6, 8 μmol/kg, 24 h after last dose",25% and 25.3%
same,Mini AU EC (brain Aβ40),"Aβ40; C57BL/6, 8 μmol/kg, after last dose",46.2%
same,Average Aβ40 brain,"Aβ40; C57BL/6, 50 μmol/kg q.d. 8 weeks, 4 h after last dose",93.4 ± 83.7 pg/g
same,Average Aβ40 brain,"Aβ40; C57BL/6, 50 μmol/kg q.d. 8 weeks, 24 h after last dose",233.8 ± 36.5 pg/g
same,% reduction vs vehicle (brain Aβ40),"Aβ40; C57BL/6, 50 μmol/kg, 4 h after last dose",92.9%
same,% reduction vs vehicle (brain Aβ40),"Aβ40; C57BL/6, 50 μmol/kg, 24 h after last dose",84.1%
same,Mini AU EC (brain Aβ40),"Aβ40; C57BL/6, 50 μmol/kg, after last dose",88.5%
same,Aβ40 reduction over the whole 24 hour time course,"Aβ40; C57BL/6, 50 μmoles/kg, after last dose",80-90%
